From publication PMC7178883, “1,2,4-Triazole-based anticonvulsant agents with additional ROS scavenging activity are effective in a model of pharmacoresistant epilepsy” (Journal of Enzyme Inhibition and Medicinal Chemistry, 2020)
Read-outs that look alike come from different tables or passages of the source.

Columns and labels:
U-87 MG cells [1] = assay: Cell viability, MTT assay; format: cell-based, human; conditions: 10 µg/ml, 24 h
Experimental: Viability of glioblastoma cells U-87 MG (ATCC HTB-14) exposed to a fixed dose of 10 µg/ml of TP-10, TP-315, and TP-427 was measured using MTT assay. Stock solutions of the investigated compounds in DMSO were prepared in the concentration of 50 mg/ml. The cells were cultured at 37 °C in a 5% CO2 atmosphere using Eagle’s Minimum Essential Medium (EMEM) supplemented with 10% foetal bovine serum (FBS), 100 U/ml of penicillin, and […] of streptomycin. Suspension of U-87 MG cells at a density of 1 × 10^5 cells/ml was placed in 96-well plate (100 µl in each well) and incubated for 24 h. On the day of the experiment, the medium was removed from wells and replaced with medium containing a fixed concentration (10 µg/ml) of the respective 1,2,4-triazole derivative. After 24 h of incubation, 15 µl of MTT solution (5 mg/mL in PBS) was added to each well and the microplates were incubated for the next 3 h. Crystals of formazan formed in the metabolically active cells were solubilised with 10% SDS solution (100 µl) during overnight incubation and then the absorbance of dissolved formazan was measured at λ = 570 nm using a microplate reader (Epoch, BioTek Instruments, Inc., Winooski, VT, USA). The viability of cells treated with TP-10, TP-315, or TP-427 was expressed as the % of the viability of control cells (i.e. cells incubated without respective compounds). The experiments were run in triplicate and repeated three times. Sample observations and image capturing were performed using Olympus CKX53 microscope coupled with XM10 digital camera (Olympus).

U-87 MG cells [2] = assay: Total ROS activity assay (flow cytometry); format: cell-based, human; conditions: 10 µg/ml, 24 h; for ROS positive cells: control 90.2%
Experimental: Total ROS activity was measured using Intracellular Total ROS Activity Assay Kit (ImmunoChemistry Technologies, Bloomington, MN, USA). After 24 h of incubation of glioblastoma cells U-87 MG (ATCC, Manassas, VA, USA) with the test compounds in concentration 10 µg/ml, the medium was removed, the cells were washed twice with the cold PBS solution and the Assay Buffer (provided by the kit manufacturer) was added. Then, cells (at a density of 1 × 10^6 cells/ml) were treated with 10 µl of Total ROS green reagent and incubated for 1 h at 37 °C in a CO2 incubator. After incubation, the cells were subjected to a rinsing procedure using the Assay Buffer. Cells were suspended in 500 µl of the Assay Buffer and analysed using a flow cytometer (BD FACSCanto II flow cytometer) and FACSDiva software (both from BD Biosciences Systems, San Jose, CA, USA).

hCA I = target: T1, hCA I (Homo sapiens, UniProt P00915); assay: Carbonic anhydrase inhibition, stopped flow CO2 hydration; format: biochemical; conditions: 1 h incubation
T1 construct: made in house
Experimental: Carbonic anhydrase catalysed CO2 hydration activity was measured using an Applied Photophysics stopped-flow spectrometer. […] The uncatalyzed rates were determined in the same manner and subtracted from the total observed rates. Stock solutions of inhibitor (0.1 mM) were prepared in distilled-deionized water and dilutions up to 0.01 nM were done thereafter with the assay buffer. […] The inhibition constants were obtained by non-linear least-squares methods using PRISM 3 and the Cheng–Prusoff equation and represent the mean from at least three different determinations. All CA isoforms were recombinant ones obtained in-house[21]^,[22].

HEK-293 = tested on: HEK-293; set-up: method as in PMID 30594731, PMID 28824309; conditions: 10 µg/ml; cited from earlier work
HepG2 = tested on: HepG2; set-up: method as in PMID 30594731, PMID 28824309; conditions: 10 µg/ml; cited from earlier work
motor coordination = conditions: cited from earlier work; for TD50 ± SEM: chimney test

T1 sequence (P00915 whole entry): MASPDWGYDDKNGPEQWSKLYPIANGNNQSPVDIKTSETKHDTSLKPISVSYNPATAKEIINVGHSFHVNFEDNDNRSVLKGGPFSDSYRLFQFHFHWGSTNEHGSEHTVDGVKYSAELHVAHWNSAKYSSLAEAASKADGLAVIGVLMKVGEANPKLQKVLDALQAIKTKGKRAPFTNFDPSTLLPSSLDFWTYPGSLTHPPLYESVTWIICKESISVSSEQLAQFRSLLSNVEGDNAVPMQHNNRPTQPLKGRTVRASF

Structure (SMILES) | Relative viability vs. untreated cells (U-87 MG cells [1]) | ROS negative cells (U-87 MG cells [2]) | ROS positive cells (U-87 MG cells [2]) | Ki (hCA I) | toxicity for HEK-293 cells (HEK-293) | toxicity for HepG2 cells (HepG2) | TD50 (motor coordination; Figure 1, pretreatment time not given) | TD50 ± SEM (motor coordination; pretreatment time 15 min) | TD50 ± SEM (motor coordination; pretreatment time 30 min)
Cc1ccc(-n2c(-c3cccc(Cl)c3)n[nH]c2=S)cc1 [TP-10, 5-(3-chlorophenyl)-4-(4-methylphenyl)-2,4-dihydro-3H-1,2,4-triazole-3-thione] | 99.16 ± 3.92% | 11.5% | 88.5% | 2190 nM | – | – | – | – | –
CCCCCCn1c(-c2cccc(Cl)c2)n[nH]c1=S [TP-315, 5-(3-chlorophenyl)-4-hexyl-2,4-dihydro-3H-1,2,4-triazole-3-thione] | 98.82 ± 2.84% | 14.1% | 85.9% | – | non-toxic | non-toxic | – | – | –
CCCCCCn1c(Cc2cccc(Cl)c2)n[nH]c1=S [TP-427, 5-(3-chlorobenzyl)-4-hexyl-2,4-dihydro-3H-1,2,4-triazole-3-thione] | 98.53 ± 4.18% | 20.9% | 79.1% | > 100000 nM | non-toxic | non-toxic | > 1000 mg/kg | >1000 mg/kg | >1000 mg/kg
